Experimental data published in PubChem BioAssay AID624491 (Broad Institute, 2012).

Test system: D54 ERlucT glycosylation luciferase reporter, luminescence, 24 h
Assay: N-linked glycosylation inhibitors, luciferase reporter, dose response, D54 ERlucT cells, luminescence, cherry-picks (AID 624491);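 note: signal gain reflects blocked N-linked glycosylation of a luciferase reporter; actives raise luciferase signal so AC26 marks activators of the reporter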

SMILES | AC26 [nM]
O=C(c1[nH]c(C(F)(F)F)nc1-c1ccccc1)N1CCN(c2ccccc2)CC1 | 395
Cc1nc(SCC(=O)Nc2ccc(F)cc2)c(C#N)c(C)c1CC(=O)c1ccc(Br)cc1 | 1660
Cn1cnc([N+](=O)[O-])c1S(=O)(=O)Oc1ccccc1 | 1420
Cc1ccc(O)c(C(=O)C=Cc2ccccc2)c1 | 1210
COc1ccc(-c2cc3ccccc3oc2=O)cc1NC(=S)NC(=O)c1ccc2c(c1)OCCO2 | 3970
Cc1ccc(CNC(=O)Cc2ccc(Br)cc2)cc1 | 6690
O=c1[nH]c(=O)c2nc3c4ccccc4c4ccccc4c3nc2[nH]1 | 392
CCn1c2ccccc2c2cc(NC(=O)CNCc3ccccc3OC)ccc21 | 1360
CCOC(=O)c1cnc2c(ccc3ccccc32)c1NCCCN(C)C | 2050
Cc1ccc(C(=O)N/C(=C/c2cccs2)C(=O)NCCc2c[nH]c3ccccc23)cc1 | 1080
COc1cc(NC(=O)NCc2ccco2)ccc1-c1ccc(NC(=O)NCc2ccco2)cc1OC | 4350
CCN(CC)CCNc1ccc(C)c2sc3ccc(O)cc3c(=O)c12 | 7.74
CCOC(=O)c1ccc(Oc2cc(C)nc(SC)n2)cc1 | 1720
COc1cc(OC)c2c(-c3cccc(-c4ccoc4)c3)cc(=O)oc2c1 | 7640
CN(C)CCNc1cccc2sc3ccc(O)cc3c(=O)c12 | 500
Cc1ccc2nc(-c3ccc(SCC(=O)Nc4nnc(C)s4)nc3)[nH]c2c1 | 4860
O=C(c1cn(Cc2ccccc2)nc1-c1ccccc1)N1CCN(c2ccccn2)CC1 | 999
Cc1ccc(C(=O)Nc2cc(S(=O)(=O)N3CCOCC3)ccc2N2CCCC2)cc1 | 1310
COc1ccc(C2=NOC(C(=O)NCc3ccco3)C2)cc1 (centres undefined) | 2400
C[C@@H](NC(=O)c1ncn2c1c(=O)[nH]c1ccc(Br)cc12)c1ccccc1 | 2060
CCOc1ccc(NC(=S)NC(=O)/C=C/c2ccc(C)cc2)c([N+](=O)[O-])c1 | 3930
CC(CCc1ccccc1)NC(=O)c1ccc(NC(=O)c2ccccc2)cc1 (centres undefined) | 4540

SMILES | AC26 [nM]
COC(=O)c1[nH]c2cc(OC)c(OC)cc2c1/C=N/Nc1ccccc1 | 6360
CC(C)(C)c1ccc(C(=O)O/N=C(\N)Cc2cccs2)cc1 | 11800
Cn1cccc1/C=C1\SC(=Nc2cccc(O)c2)NC1=O | 2850
C[C@@]12C(=O)Nc3cc(F)c(F)cc3C(=O)N1[C@H]1c3ccccc3OC[C@@H]1[C@@H]2c1ccccc1 | 784
COc1cccc(C(N)c2nc(-c3csc4ccccc34)cs2)c1 (centres undefined) | 3590
COc1cc(Nc2c3c(nc4ccccc24)CCC3)cc(OC)c1OC | 71.5
Cc1cc(C)cc(C(=O)N2CC(=O)Nc3ccccc32)c1 | 265
COc1cc2c(cc1OC)C(C)N(C(=O)Nc1cc(C)cc(C)c1)CC2 (centres undefined) | 6970
CN(C)C(=O)c1cccc(-c2cnc3c(NC=O)cc(-c4ccccc4Cl)cn23)c1 | 6820
COC(=O)c1ccc(C(=O)NC2CC(C)(C)Cc3c2cnn3-c2ccc(F)cc2)nc1 (centres undefined) | 4170
CCOC(=O)c1c(C)[nH]c(C(=O)N/N=C/c2ccc(OC)c(OC)c2)c1C | 2070
COc1ccc(CC(=O)N/N=C/c2c(C)n(C)c3ccccc23)cc1OC | 4460
Cc1ccc(NC(=O)CSc2nnc(-c3ccco3)c(-c3ccco3)n2)cc1 | 1240
COc1cccc(-c2cnc3c(NC(C)=O)cc(-c4cc(F)ccc4OC)cn23)c1 | 1600
CCOC(=O)c1[nH]c(C)c(C(=O)Nc2cc(OC)ccc2OC)c1C | 322
O=C(NC1CCCCC1)c1ccc([N+](=O)[O-])o1 | 852
CCn1c2ccccc2c2cc(Nc3cc(C)nc4ncnn34)ccc21 | 69.8
O=C1Cc2c([nH]c3ccc(Br)cc23)-c2ccccc2N1 | 351
CC(C)OCC(O)CN1CCN(CCN2C(=O)c3cccc4cccc(c34)C2=O)CC1 (centres undefined) | 7110
Cc1cc2nnc(SCC(=O)NCc3cccs3)n2c2ccccc12 | 1660
Cc1cccc(Nc2nc(N)nc(-c3oc4ccccc4c3C)n2)c1 | 7050
COc1cc(-c2coc3c(C(=O)NCc4ccc(OC)c(OC)c4)cccc23)ccc1O | 1220
